Measured values taken from US7521540B2, “CYR61 compositions and methods” (Munin Corporation, priority 1996, dated 2009).

Assays:
[1] = tested on: Human Microvascular Endothelial Cells; experiment: In vitro migration assay for angiogenesis inhibitors; assay type: cell-based; conditions: bFGF 10 ng/ml; Cyr61; IGF-II
Method: As in the preceding Example, human microvascular endothelial cells (Clonetics) were used. In one series of assays, several carbohydrates and carbohydrate derivatives were analyzed. These compounds included 10 mM mannose, 10 mM mannose-6-phosphate, and 10 mM galactose. […] Cyr61 plus galactose induced the migration of approximately 74 cells per set of three high-powered fields. […] The angiogenic activity of basic FGF (10 ng/ml) was also tested, as described above, with and without mannose-6-phosphate. In the presence of 10 mM mannose-6-phosphate, bFGF induced 51 cells per set of three high-powered fields to migrate; in its absence, bFGF induced the migration of approximately 52 cells. […] The effect of mannose-6-phosphate on IGF II activity was anticipated because mannose-6-phosphate is known to compete with IGF II for their common receptor (the IGF II receptor). […] Moreover, because there is an essentially perfect correlation between the in vitro migration assay and the in vivo angiogenesis assay, described below, mannose-6-phosphate has been identified as an inhibitor of angiogenesis based on the results of the assay disclosed herein. Accordingly, the invention contemplates a method of inhibiting angiogenesis comprising the step of administering an inhibitor the angiogenic activity of Cyr61 such as mannose-6-phosphate. Assays such as that described above may also be used to screen for other inhibitors of angiogenesis which may be useful in the treatment of diseases associated with angiogenesis such as cancer, and diseases of the eye which are accompanied by neovascularization.

cornea = experiment: Cornea assay for angiogenic factors; assay type: in vivo, rat; conditions: FGF 0.15 μM (six animals); Cyr61 1 μg/ml (seven animals)
Text: Another assay for modulators of angiogenesis is an in vivo assay for assessing the effect of a suspected modulator in the presence of an ECM signaling molecule-related biomaterial, such as Cyr61, on angiogenesis is the Cornea Assay. The Cornea Assay takes advantage of the absence of blood vessels in the cornea, which in the presence of an angiogenic factor, results in the detectable development of capillaries extending from the sclera into the cornea. Friedlander et al., Science 270:1500-1502 (1995). This ingrowth of new blood vessels from the sclera can be microscopically monitored. Further, the visually determined rate of migration can be used to assess changes in the rate of angiogenesis. […] Subsequently, eyes containing implants are visually observed for growth of the readily visible blood vessels within the eye. […]
Although rats of various sizes can be used in the cornea assay, a preferred size for the rats is 150-200 g/animal. […] Once the cornea pocket is made, the spatula is removed and the distance between the limbus and base of the pocket is measured to make sure the separation is at least about 1 mm. […]
Following surgery, animals are examined daily for seven days with the aid of a stereomicroscope to check for inflammation and responses. […] During this seven day period, animals are monitored for implant position and corneal exudate. […]

Substance: bFGF: Growth factor used as positive control [reference compound]
- migrating cells, chemoattractant without mannose-6-phosphate [1]: approximately 52 cells
- eyes showing blood vessel growth after seven days (cornea): all six
